Results reported in article PMC12155096 (International Journal of Molecular Sciences, 2025).
Where two headings read alike, the source gives them in different places.

Columns and labels:
CYP3A4 = CYP3A4 (Homo sapiens, UniProt P08684)
human CYP1A2 = molecular target: T1, human CYP1A2 (Homo sapiens, UniProt P05177)
T1 sequence (P05177 1-516): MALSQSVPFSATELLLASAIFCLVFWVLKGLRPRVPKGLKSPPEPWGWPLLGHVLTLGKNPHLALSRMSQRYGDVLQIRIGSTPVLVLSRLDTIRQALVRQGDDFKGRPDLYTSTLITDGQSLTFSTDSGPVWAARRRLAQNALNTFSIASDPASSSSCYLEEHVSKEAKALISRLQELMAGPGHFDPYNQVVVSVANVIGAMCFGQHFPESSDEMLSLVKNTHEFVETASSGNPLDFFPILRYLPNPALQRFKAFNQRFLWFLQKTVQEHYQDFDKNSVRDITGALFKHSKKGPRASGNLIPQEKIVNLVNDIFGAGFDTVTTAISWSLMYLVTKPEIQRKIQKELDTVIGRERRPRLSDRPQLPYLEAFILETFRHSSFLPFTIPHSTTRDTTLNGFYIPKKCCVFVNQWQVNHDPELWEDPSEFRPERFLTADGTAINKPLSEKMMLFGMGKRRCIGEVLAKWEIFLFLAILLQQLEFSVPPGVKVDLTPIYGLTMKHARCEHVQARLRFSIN

human CYP2C9 = human CYP2C9 (Homo sapiens, UniProt P11712)
[1] = molecular target: Photinus pyralis (firefly) luciferase (Photinus pyralis, UniProt P08659); experiment: biochemical; type: biochemical
human CYP2D6 = human CYP2D6 (Homo sapiens, UniProt P10635)
human CYP2C19 = human CYP2C19 (Homo sapiens, UniProt P33261)
Sequence of human CYP2C19 (P33261 whole entry): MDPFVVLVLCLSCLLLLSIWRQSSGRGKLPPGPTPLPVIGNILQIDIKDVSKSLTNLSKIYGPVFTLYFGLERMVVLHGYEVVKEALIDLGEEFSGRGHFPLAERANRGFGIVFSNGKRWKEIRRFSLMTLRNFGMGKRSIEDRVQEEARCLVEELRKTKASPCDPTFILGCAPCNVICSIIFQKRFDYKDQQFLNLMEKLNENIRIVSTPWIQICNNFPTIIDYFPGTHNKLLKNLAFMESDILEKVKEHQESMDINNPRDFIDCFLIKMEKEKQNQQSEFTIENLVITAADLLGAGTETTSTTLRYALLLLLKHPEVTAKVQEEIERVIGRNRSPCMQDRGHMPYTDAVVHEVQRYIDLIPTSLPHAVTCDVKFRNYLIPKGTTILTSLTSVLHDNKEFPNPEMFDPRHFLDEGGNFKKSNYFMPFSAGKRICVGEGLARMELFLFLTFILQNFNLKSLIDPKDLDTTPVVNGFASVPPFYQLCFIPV

Sequence of human CYP2D6 (P10635 whole entry): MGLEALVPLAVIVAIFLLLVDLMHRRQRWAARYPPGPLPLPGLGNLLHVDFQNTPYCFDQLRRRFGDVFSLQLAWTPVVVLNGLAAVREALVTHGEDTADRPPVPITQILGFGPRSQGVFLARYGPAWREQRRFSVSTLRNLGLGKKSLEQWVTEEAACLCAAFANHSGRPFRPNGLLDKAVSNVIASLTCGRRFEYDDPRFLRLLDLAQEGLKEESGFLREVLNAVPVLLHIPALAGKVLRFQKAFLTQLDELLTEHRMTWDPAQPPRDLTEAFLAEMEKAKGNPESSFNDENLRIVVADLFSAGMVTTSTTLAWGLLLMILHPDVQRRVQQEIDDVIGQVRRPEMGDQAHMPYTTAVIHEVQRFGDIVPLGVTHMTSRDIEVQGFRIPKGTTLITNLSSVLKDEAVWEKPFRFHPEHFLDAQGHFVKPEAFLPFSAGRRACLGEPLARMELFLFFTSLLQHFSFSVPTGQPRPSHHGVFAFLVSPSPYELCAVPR
Sequence of human CYP2C9 (P11712 whole entry): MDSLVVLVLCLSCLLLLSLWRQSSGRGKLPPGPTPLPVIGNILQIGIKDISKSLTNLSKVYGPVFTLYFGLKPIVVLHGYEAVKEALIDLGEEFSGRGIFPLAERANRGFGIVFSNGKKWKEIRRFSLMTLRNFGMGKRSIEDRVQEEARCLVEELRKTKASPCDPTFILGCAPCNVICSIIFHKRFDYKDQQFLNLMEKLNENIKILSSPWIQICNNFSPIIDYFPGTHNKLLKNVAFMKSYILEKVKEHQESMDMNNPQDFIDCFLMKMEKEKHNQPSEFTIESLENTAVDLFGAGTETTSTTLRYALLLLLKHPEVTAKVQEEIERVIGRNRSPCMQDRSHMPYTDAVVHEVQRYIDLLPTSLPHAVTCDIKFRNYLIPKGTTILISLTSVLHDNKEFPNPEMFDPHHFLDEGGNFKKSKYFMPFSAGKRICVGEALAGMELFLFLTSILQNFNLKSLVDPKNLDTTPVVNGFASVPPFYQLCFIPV
Sequence of Photinus pyralis (firefly) luciferase (P08659 whole entry): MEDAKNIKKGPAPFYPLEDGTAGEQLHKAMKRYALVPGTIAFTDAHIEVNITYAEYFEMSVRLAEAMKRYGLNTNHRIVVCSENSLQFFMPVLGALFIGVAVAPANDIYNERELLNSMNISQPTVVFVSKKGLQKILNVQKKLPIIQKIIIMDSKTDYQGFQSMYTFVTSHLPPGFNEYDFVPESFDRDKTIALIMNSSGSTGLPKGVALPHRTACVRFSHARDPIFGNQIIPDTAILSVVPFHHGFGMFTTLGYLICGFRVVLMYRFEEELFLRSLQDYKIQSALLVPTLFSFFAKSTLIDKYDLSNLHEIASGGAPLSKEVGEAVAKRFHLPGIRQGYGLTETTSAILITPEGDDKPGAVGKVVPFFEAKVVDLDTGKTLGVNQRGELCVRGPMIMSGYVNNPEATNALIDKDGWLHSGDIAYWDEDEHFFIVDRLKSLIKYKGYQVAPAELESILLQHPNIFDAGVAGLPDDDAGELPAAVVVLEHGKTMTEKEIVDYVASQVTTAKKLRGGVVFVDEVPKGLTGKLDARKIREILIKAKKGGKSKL
Sequence of CYP3A4 (P08684 whole entry): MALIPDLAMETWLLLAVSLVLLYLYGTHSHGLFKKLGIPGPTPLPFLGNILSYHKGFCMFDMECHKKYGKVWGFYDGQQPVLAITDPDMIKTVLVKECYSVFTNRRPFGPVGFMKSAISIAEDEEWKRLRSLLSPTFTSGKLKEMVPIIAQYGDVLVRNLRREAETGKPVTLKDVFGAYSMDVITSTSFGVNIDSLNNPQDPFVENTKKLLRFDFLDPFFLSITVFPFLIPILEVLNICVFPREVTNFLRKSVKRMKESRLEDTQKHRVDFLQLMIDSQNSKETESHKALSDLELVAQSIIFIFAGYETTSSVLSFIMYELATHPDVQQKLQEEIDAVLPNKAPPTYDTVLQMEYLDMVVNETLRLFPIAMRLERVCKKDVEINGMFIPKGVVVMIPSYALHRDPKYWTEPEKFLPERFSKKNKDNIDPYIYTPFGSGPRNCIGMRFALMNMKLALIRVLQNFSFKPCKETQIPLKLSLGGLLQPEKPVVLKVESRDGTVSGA

SMILES	Luciferase IC50 (half-maximal inhibitory concentration) [1]	IC50 (human CYP2D6) [µM]	IC50 (human CYP2C9) [µM]	IC50 (human CYP2C19) [µM]	IC50 (CYP3A4) [µM]	IC50 (human CYP1A2) [µM]	further results
CNC(C)Cc1ccc2c(c1)OCO2.Cl (stereo not drawn)	Inactive	0.4					CYP3A4 IC50 (half-maximal inhibitory concentration) (CYP3A4): Inactive; CYP1A2 IC50 (half-maximal inhibitory concentration) (human CYP1A2): Inactive; CYP2C9 IC50 (half-maximal inhibitory concentration) (human CYP2C9): Inactive; CYP2C19 IC50 (half-maximal inhibitory concentration) (human CYP2C19): Inactive
CC(=O)OC1(c2ccccc2)CCN(CCc2ccccc2)CC1	Inactive	0.57	53.2	36.6			AC50 (CYP3A4): 40.9 µM; CYP3A4 IC50 (half-maximal inhibitory concentration) (CYP3A4): 40.89 ± 0 (145 ± 9) µM; CYP1A2 IC50 (half-maximal inhibitory concentration) (human CYP1A2): Inactive; AC50 (human CYP2C9): 53.2 µM; CYP2D6 Efficacy (human CYP2D6): 0.57 ± 0.14 (-105 ± 2) %; AC50 (human CYP2C19): 36.6 µM
FC(F)(F)c1ccccc1-n1ccnc1	Inactive	2.28	8.39		0.44	4.14	CYP2C19 Efficacy (human CYP2C19): 9.3 ± 5.41 (-172 ± 73) %
CSc1ccc(C(=O)C(C)(C)N2CCOCC2)cc1	Inactive	2.53	23.2		3.18	40.1	CYP2C19 Efficacy (human CYP2C19): 0.94 ± 0.32 (-142 ± 3) %
CC(C)(C)c1cc(CCC(=O)NN)cc(C(C)(C)C)c1O	Inactive	34.3	5.92	5.4	0.14	6.97	CYP3A4 Efficacy (in parenthesis) (CYP3A4): 0.14 ± 0.02 (-94 ± 4) %; CYP1A2 Efficacy (in parenthesis) (human CYP1A2): 6.97 ± 1.74 (-102 ± 5) %; CYP2C9 Efficacy (in parenthesis) (human CYP2C9): 5.92 ± 1.06 (-98 ± 3) %; CYP2D6 Efficacy (in parenthesis) (human CYP2D6): 34.28 ± 2.23 (-95 ± 1) %; CYP2C19 Efficacy (in parenthesis) (human CYP2C19): 5.4 ± 1.6 (-136 ± 2) %
C=CCc1cc(S(=O)(=O)c2ccc(O)c(CC=C)c2)ccc1O	Inactive	6.26	0.4	3.47	20	73.9	CYP3A4 Efficacy (in parenthesis) (CYP3A4): 20.01 ± 7.14 (-71 ± 11) %; CYP1A2 Efficacy (in parenthesis) (human CYP1A2): 73.87 ± 5 (-42 ± 2) %; CYP2C9 Efficacy (in parenthesis) (human CYP2C9): 0.4 ± 0.13 (-67 ± 11) %; CYP2D6 Efficacy (in parenthesis) (human CYP2D6): 6.26 ± 1.74 (-110 ± 9) %; CYP2C19 Efficacy (in parenthesis) (human CYP2C19): 3.47 ± 1.89 (-136 ± 7) %
C[N+](C)(CCOc1ccccc1)Cc1cccs1.[I-]	Inactive	0.15					CYP3A4 IC50 (half-maximal inhibitory concentration) (CYP3A4): Inactive; CYP1A2 IC50 (half-maximal inhibitory concentration) (human CYP1A2): Inactive; CYP2C9 IC50 (half-maximal inhibitory concentration) (human CYP2C9): Inactive; CYP2C19 IC50 (half-maximal inhibitory concentration) (human CYP2C19): Inactive
COC(=O)c1c(C)cc(O)c(C)c1O	Inactive	33	50.2		53.2	0.24	CYP2C19 Efficacy (human CYP2C19): 6.41 ± 1.34 (-140 ± 12) %
CCCCCCCC[N+](C)(CCCCCCCC)CCCCCCCC.O=S(=O)([O-])C(F)(F)F	Inactive	0.19	28.3	12.9	3.7	47.6	
CCCCCCCCCCCCCCCCCC[N+](C)(C)Cc1ccccc1.[Cl-]					45.9		CYP1A2 Efficacy (human CYP1A2): 80.42 ± 0 (-111 ± 16) %; CYP2C9 Efficacy (human CYP2C9): 38.84 ± 2.53 (-102 ± 5) %; IC50 ([1]; read-out: Luciferase IC50): 87 µM; CYP2D6 Efficacy (human CYP2D6): 0.67 ± 0.43 (-99 ± 3) %; CYP2C19 Efficacy (human CYP2C19): 48.63 ± 14.39 (-147 ± 23) %
CCCC[N+](C)(CCCC)CCCC.O=S(=O)([N-]S(=O)(=O)C(F)(F)F)C(F)(F)F	Inactive	0.48	5.83		67.4	50.6	CYP2C19 IC50 (half-maximal inhibitory concentration) (human CYP2C19): Inactive
CCCCCCCCCCCCCC[P+](CCCC)(CCCC)CCCC.CCCCCCCCCCCCc1ccc(S(=O)(=O)[O-])cc1	Inactive	0.21	15.7	22		24.3	AC50 (CYP3A4): 7.93 µM; CYP3A4 Efficacy (in parenthesis) (CYP3A4): 7.93 ± 2.21 (104 ± 17) %; CYP3A4 IC50 (half-maximal inhibitory concentration) (CYP3A4): 7.93 ± 2.21 (104 ± 17) µM; CYP1A2 AC50 (half-maximal activity concentration) (human CYP1A2): Inconclusive inhibitor; CYP1A2 Efficacy (in parenthesis) (human CYP1A2): 24.26 ± 16.34 (-39 ± 1) %; CYP2C9 Efficacy (human CYP2C9): 15.74 ± 3.82 (-84 ± 8) %; CYP2C9 Efficacy (in parenthesis) (human CYP2C9): 15.74 ± 3.82 (-84 ± 8) %; CYP2D6 Efficacy (human CYP2D6): 0.21 ± 0.10 (-107 ± 3) %; CYP2D6 Efficacy (in parenthesis) (human CYP2D6): 0.21 ± 0.1 (-107 ± 3) %; CYP2C19 Efficacy (human CYP2C19): 21.96 ± 3.74 (-142 ± 38) %; CYP2C19 Efficacy (in parenthesis) (human CYP2C19): 21.96 ± 3.74 (-142 ± 38) %
Cc1cc(CCC(=O)OCCOCCOCCOC(=O)CCc2cc(C)c(O)c(C(C)(C)C)c2)cc(C(C)(C)C)c1O	Inactive	9.78	0.55	4.01	2.56		CYP3A4 Efficacy (in parenthesis) (CYP3A4): 2.56 ± 0.17 (-86 ± 4) %; CYP1A2 IC50 (half-maximal inhibitory concentration) (human CYP1A2): Inactive; CYP2C9 Efficacy (in parenthesis) (human CYP2C9): 0.55 ± 0.06 (-101 ± 5) %; CYP2D6 Efficacy (in parenthesis) (human CYP2D6): 9.78 ± 0 (-91 ± 3) %; CYP2C19 Efficacy (in parenthesis) (human CYP2C19): 4.01 ± 1.12 (-130 ± 10) %
CCCCCCCCCCCCCC[P+](CCCCCC)(CCCCCC)CCCCCC.O=S(=O)([N-]S(=O)(=O)C(F)(F)F)C(F)(F)F	Inactive	0.25	6.41	43.7	3.13	37	
COC(=O)C1=C(C)NC(C)=C(C(=O)O[C@@H]2CCCN(Cc3ccccc3)C2)[C@@H]1c1cccc([N+](=O)[O-])c1.Cl (racemic) [rac Benidipine hydrochloride]	Inactive	13.6	0.75	6.53	0.84	25.2	
Cl.OC(CNCC(O)C1CCc2cc(F)ccc2O1)C1CCc2cc(F)ccc2O1 (racemic) [rac Nebivolol hydrochloride]	Inactive	0.25		41.3			AC50 (CYP3A4): 16.1 µM; CYP3A4 IC50 (half-maximal inhibitory concentration) (CYP3A4): 16.12 ± 1.09 (65 ± 10) µM; CYP1A2 IC50 (half-maximal inhibitory concentration) (human CYP1A2): Inactive; CYP2C9 IC50 (half-maximal inhibitory concentration) (human CYP2C9): Inactive; CYP2D6 Efficacy (human CYP2D6): 0.25 ± 0.05 (-104 ± 2) %; CYP2C19 Efficacy (human CYP2C19): 41.28 ± 3.36 (-60 ± 3) %
CC(=C(CCOC(=O)C(C)C)SSC(CCOC(=O)C(C)C)=C(C)N(C=O)Cc1cnc(C)nc1N)N(C=O)Cc1cnc(C)nc1N (stereo in doubt) [Bisibutiamine]	Inactive				0.36		CYP1A2 IC50 (half-maximal inhibitory concentration) (human CYP1A2): Inactive; CYP2C9 IC50 (half-maximal inhibitory concentration) (human CYP2C9): Inactive; CYP2D6 IC50 (half-maximal inhibitory concentration) (human CYP2D6): Inactive; CYP2C19 IC50 (half-maximal inhibitory concentration) (human CYP2C19): Inactive
N=C(Nc1ccccc1)Nc1ccccc1 [1,3-Diphenylguanidine]		0.2	53.1	45	51.9	30.8	Luciferase IC50 [1]: Inactive
CC[N+]1(C)CCCC1.[I-] [1-Ethyl-1-methylpyrrolidinium iodide]		0.01		26.7		75.5	CYP3A4 IC50 (CYP3A4): Inactive; CYP2C9 IC50 (human CYP2C9): Inactive; Luciferase IC50 [1]: Inactive
CCCCCCCCCCCCCCCCn1cc[n+](C)c1.[Cl-] [1-Hexadecyl-3-methylimidazolium chloride]	Inactive	0.38	55.4	53	63.6	69.7	CYP3A4 Efficacy (in parenthesis) (CYP3A4): 63.62 ± 15.46 (-70 ± 19) %; CYP1A2 Efficacy (in parenthesis) (human CYP1A2): 69.7 ± 29.29 (-90 ± 28) %; CYP2C9 Efficacy (in parenthesis) (human CYP2C9): 55.36 ± 23.27 (-121 ± 6) %; CYP2D6 Efficacy (in parenthesis) (human CYP2D6): 0.38 ± 0.13 (-102 ± 3) %; CYP2C19 Efficacy (in parenthesis) (human CYP2C19): 52.99 ± 35.71 (-145 ± 35) %
O=C(Nc1ccccc1SSc1ccccc1NC(=O)c1ccccc1)c1ccccc1 [2,2'-Dibenzoylaminodiphenyl disulfide]			0.57	3.94	3.23	6.73	CYP3A4 Efficacy (in parenthesis) (CYP3A4): 3.23 ± 1.25 (-75 ± 7) %; CYP1A2 Efficacy (in parenthesis) (human CYP1A2): 6.73 ± 1.52 (-88 ± 2) %; CYP2C9 Efficacy (in parenthesis) (human CYP2C9): 0.57 ± 0.07 (-99 ± 3) %; Luciferase Efficacy (in parenthesis) [1]: 3.42 ± 1.53 (-57 ± 5) %; IC50 ([1]; read-out: Luciferase IC50 (half-maximal inhibitory concentration)): 3.42 µM; CYP2D6 Efficacy (in parenthesis) (human CYP2D6): 37.5 ± 45.35 (15 ± 47) %; CYP2D6 IC50 (half-maximal inhibitory concentration) (human CYP2D6): 37.5 ± 45.35 (15 ± 47) µM; CYP2C19 Efficacy (in parenthesis) (human CYP2C19): 3.94 ± 2.15 (-155 ± 9) %
